# Experiments:
# [1] = tested on: L02 cells; test: CCK-8 cytotoxicity against normal hepatocytes L02; type: cell-based; settings: Homo sapiens, 48 h, read-out: IC50 ± SD, L02 (human normal hepatocytes)
# Description: (§1) Human lung carcinoma cell lines A549, human cervical cancer cell lines HeLa, human prostate cancer cell lines PC3, human colorectal carcinoma cell lines HCT116, and human liver cells L02 were purchased from the Chinese Academy of Sciences Shanghai Cell Bank (Shanghai, China). HeLa, A549, PC3, HCT116, and L02 cells were cultured in DMEM Dulbecco’s Modified Eagle Medium (DMEM; Gibco Inc., Gaithersburg, MD, USA). All cultures were provided with 10% fetal bovine serum (FBS; YHSM, Beijing, China), 100 IU/mL penicillin, and 100 μg/mL streptomycin, and cells were incubated at 37 °C in an atmosphere of 5% CO2.
# (§2) Cell viability was determined using a CCK-8 kit (Apexbio, Houston, TX, USA). […] Subsequently, absorbance was assessed at 450 nm. Three duplicates were set in each group.
# To further evaluate the anticancer effect of QW12, we evaluated its cytotoxicity against four human cancer cell lines: HeLa (Human cervical tumor), PC3 (Human prostate tumor), HCT116 (Human colorectal carcinomas), and A549 (Human lung carcinoma). […] Furthermore, the IC50 values of QW12 against PC3 and HCT116 were similar to those of nifuroxazide.
# [2] = tested on: HeLa cells; test: CCK-8 antiproliferation assay, HeLa; type: cell-based; settings: Homo sapiens, 48 h
# Description: as §1, §2
# All synthesized quinoxalines compounds were tested for in vitro cytotoxicity against four cancer cell lines (HeLa, PC3, A549, and HCT116). The inhibitory effects of these compounds were evaluated using the CCK-8 assay after treatment with 20 μM of each compound. […] The species of phenyl substituents have a significant effect on the activity. […] By comparison, hydrophobic substitution at the phenyl ring gave derivatives with relatively low potency (QW7–8). In addition, large substituents on the phenyl ring exerted an unfavorable influence on the potency of the compounds (QW8 and QW16).
# [3] = tested on: HeLa cells; test: Hoechst-33342 staining; type: cell-based, human; settings: 24 h, vs control
# Description: HeLa cells (4 × 10^5 cells) were incubated in a 6-well plate for 12 h. The cells were then treated with QW12 at the indicated concentrations for 24 h. The cells were washed twice with PBS. The cells were then incubated with Hoechst-33342 (10 μg/mL) for 5 min at room temperature in darkness. After incubation, stained cells were observed under an inverted phase contrast microscope (OLYMPUS IX73, Tokyo, Japan).
# [4] = tested on: HeLa cells; test: Cell cycle analysis, PI flow cytometry; type: cell-based, human; settings: 24 h
# Description: For cell cycle analysis, cells were collected after treatment, washed twice with cold PBS, fixed in 70% ethanol overnight, and stained with PI ([…], Sigma, Shanghai, China), plus 0.2 mg/mL of DNase-free RNase A (Qiagen) for 1 h at 4 °C.
# [5] = tested on: HeLa cells; test: Wound healing assay; type: cell-based, human; settings: after 48 h, control 55.7%
# Description: A total of 1 × 10^6 cells/well in the logarithmic growth phase were seeded in 6-well plates. When cell density reached 80 to 90%, a scratch was made in the monolayer in the middle of the well with a 200 μL pipette tip. The tip was kept perpendicular to the bottom of the well to obtain a straight gap. The detached cells were washed away and removed. The healing of the wound within the same scraped line was then observed and photographed at the indicated time points (0 h, 24 h, 48 h). Each experiment was repeated three times.
# [6] = tested on: Bcl-2 and Bax in HeLa cells; test: Western blot of Bcl-2 and Bax; type: cell-based, human; settings: 24 h
# Description: HeLa cells were seeded in a 6-well plate overnight and treated with QW12 for 24 h. The cells were then harvested and washed with cold PBS and lysed with RIPA buffer supplemented with a protease and phosphatase inhibitor cocktail. Protein concentration was measured using a BCA protein assay kit (Boster Biological Technology Co., Ltd., Wuhan, China). Proteins were separated by 10% SDS-PAGE gel and transferred onto polyvinylidene difluoride (PVDF) membranes (Millipore Co., Billerica, MA, USA). After blocking with 5% mild in PBST for 1 h at room temperature, membranes were incubated with specific primary antibodies against STAT3 (#ET1605-45), Bcl-2 (#ET1603-11), Bax (#ET1603-34), or GAPDH (#HA721136) overnight at 4 °C. The above antibodies were purchased from HUABIO, China. Phospho-STAT3 (Tyr 705) (#9145S) and anti-rabbit IgG, HRP-linked antibody (#7074S) were purchased from Cell Signaling Technology, Inc. America. The next day, the membranes were washed with PBST three times and incubated with secondary antibodies 2 h at room temperature. Images were captured and documented with a CCD system (Tanon 5200, Biotanon, Shanghai, China).
# [7] = tested on: HeLa cells; test: Intracellular ROS, DCFH-DA flow cytometry; type: cell-based, human; settings: 10 and 40 μM, 6 h
# Description: Intracellular reactive oxygen species (ROS) were measured by 2,7-dichlorofluorescein diacetate (DCFH-DA) staining. HeLa cells were treated with QW12 at 10 μM and 40 μM for 6 h. After indicated treatment, cells were harvested and washed with PBS. Cells were incubated with 10 μM DCFH-DA at 37 °C for 30 min. Cells were washed twice, resuspended with PBS, and subjected to flow cytometry.
# [8] = tested on: HeLa cells; test: Colony formation (plate-cloning) assay; type: cell-based, human; settings: different concentrations, 24 h treatment
# Description: HeLa cells were digested and seeded directly in 6-well plates (1 × 10^3 cells/well) for the colony-formation assay and cultured in the presence of 10% FBS and 1% penicillin/streptomycin at 37 °C with 5% CO2 for 12 h in confluent cell monolayers. The cells were then treated with QW12 at the indicated concentrations for 24 h. Two weeks later, the medium was removed, and the plates were washed with phosphate-buffered saline (PBS) three times. Cells were fixed with anhydrous ethanol for 30 min and then stained with Giemsa dye solution (Solarbio) for 30 min. The plates were dried with a blower to ensure high-quality images were obtained. Colonies were defined as >50 cells/colony.
# [9] = HeLa cells, 10, 40 μM, vs control
structure (smiles),measurement,setting,value
"COc1cc(-c2ccc(/C=N/NC(=O)c3ccc(O)cc3)o2)c(OC)cc1-c1ccc2nccnc2c1 [QW12, (E)-N’-((5-(2,5-dimethoxy-4-(quinoxalin-6-yl)phenyl)furan-2-yl)methylene)-4-hydroxybenzohydrazide]",IC50,[1],> 50 µM
same,IC50,"[2]; HeLa, CCK-8, read-out: IC50 ± SD, HeLa",10.58 ± 0.1 µM
same,inhibition at 20 µM,"[2]; 20 μM, CCK-8, mean ± SD, read-out: Inhibition Rate (%) at 20 μM, HeLa",76.35 ± 0.11%
same,nuclear morphology (Hoechst staining),[3],significant apoptotic morphological characteristics were observed
same,HeLa cell population in the S phase,[4]; 10 μM,23.19%
same,HeLa cell population in the S phase,[4]; 40 μM,51.88%
same,percentage of cells in phases G0/G1 and G2/M,[4]; 10 and 40 μM,decreased significantly
same,rate of scratch closure,[5]; 10 μM,28.0%
same,rate of scratch closure,[5]; 40 μM,17.2%
same,Bcl-2/Bax expression ratio,"[6]; 40 μM, control 1.00",0.66 ± 0.01
same,Bax expression,[6]; [9],increased slightly
same,Bcl-2 expression,[6]; [9],decreased significantly
same,effect on ROS accumulation,[7],stimulates ROS accumulation in a dose-dependent manner
same,effect on proliferation in plate-cloning assay,[8],proliferated at a significantly lower rate than the control
